The values below are quoted from earlier work in patent US20050049209A1, “Pharmaceutical compositions for delivering macrolides” (priority 2003, published 2005).

The conditions of this data set: can be solubilized at pH<5 as salt.

Structures are written as SMILES.

As to `CC[C@H]1OC(=O)[C@H](C)[C@@H](OC2CC(C)(OC)C(O)C(C)O2)[C@H](C)[C@@H](OC2OC(C)CC(N(C)C)C2O)[C@](C)(OC)C[C@@H](C)C(=O)[C@H](C)[C@@H](O)[C@]1(C)O` (stereo partly shown) [Clarithromycin freebase, 6-O-methyl-erythromycin], the solubility in water entry was “substantially insoluble”.
